Assay results taken from publication PMC7858579, “Biochemical and structural characterization of a recombinant fibrinogen-related lectin from Penaeus monodon” (Scientific Reports, 2021).

Key:
[1] = target: T1, His6 PmFREP (PmFREP; PL5-1) (Penaeus monodon, UniProt A0A068LKH5, G184D); assay: inhibition of human red blood cell (type A) agglutination; assay type: cell-based; details: 0.5 uM His6 PmFREP, 3% (v/v) red blood cells; multivalent avidity assay
T1 construct: full length without native signal peptide; XEEL signal peptide (cleaved), N-terminal His6 tag kept; native part starts GTTERTDTA (from primer); Trichoplusia ni cells; disulfide-linked dimer of pentamers
T1 sequence (A0A068LKH5 entry or part of it G184D): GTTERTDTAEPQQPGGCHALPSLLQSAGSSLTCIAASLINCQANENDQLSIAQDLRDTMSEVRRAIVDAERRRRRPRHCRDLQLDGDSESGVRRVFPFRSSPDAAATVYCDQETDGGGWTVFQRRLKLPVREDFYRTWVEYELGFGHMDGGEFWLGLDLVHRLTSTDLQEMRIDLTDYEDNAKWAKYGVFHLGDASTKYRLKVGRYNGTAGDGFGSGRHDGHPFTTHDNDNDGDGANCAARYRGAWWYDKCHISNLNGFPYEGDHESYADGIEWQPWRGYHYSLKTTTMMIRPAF

[2] = target: T1, His6 PmFREP (PmFREP; PL5-1); assay: binding to GlcNAc affinity resin and competitive elution, western blot; details: 100 mM monosaccharide, 20 mM HEPES pH 7.5, 150 mM NaCl, 10 mM CaCl2

Row | concentration inhibiting agglutination [1] | Structure (SMILES) | binding to GlcNAc affinity resin and competitive elution, western blot [2]
1 | ~ 10 mM | CC(=O)N[C@H]1C(O)O[C@H](CO)[C@H](O)[C@@H]1O (some centres unmarked) [GalNAc, N-acetylgalactosamine] | 
2 | ~ 10 mM | CC(=O)N[C@H]1C(O)O[C@H](CO)[C@@H](O)[C@@H]1O (some centres unmarked) [GlcNAc] | His6 PmFREP can bind GlcNAc as expected for fibrinogen-like lectin
3 | 1 mM | CC(=O)N[C@@H]1C(O)O[C@H](CO)[C@@H](O)[C@@H]1O (some centres unmarked) [ManNAc, N-acetylmannosamine] | 
4 | 5 mM | CC(=O)N[C@H]1[C@H]([C@H](O)[C@H](O)CO)OC(O)(C(=O)O)C[C@@H]1O (some centres unmarked) [Neu5Ac, N-acetylneuraminic acid] | 
